Data from patent publication US9574182B2, “Monoterpene glycosyltransferase originating from hop and method for using same” (SUNTORY HOLDINGS LIMITED, priority 2012, dated 2017).

B1: HlUGT251: Humulus lupulus monoterpene glycosyltransferase, amino acid sequence SEQ ID NO: 8, expressed as HisTag fusion in E. coli (protein, listed as Humulus lupulus)
chain: MGSISEMMKPHAVCVPFPAQGHVNPMMQLAKLLHSRGFHITYVNTEFNHRRLIRSRGPDSVKGLPDFQFETIPDGLPPSDRDATQEVPPLCDATRKNCLGPFKELLHKLRSCSEVPPVTCIITDGIMTFGIKAAREFGIPEVVFWTASACSFMGYLQYDELVRRGIVPFKDESFMLDGTLDTPIDWIPGIRDVRLRDLPSFLRVTSTDDIMFDFLGSQAKNCLTSSAIIFNTFRELELEVLDSISDMYPNIYTIGPLPMLNRHLPAESQVKSMSTSLWKEDSTCFQWLHKREPNSVVYVNYGSITTMTEDNFREFAWGLANSKHSFVWIVRPDVIMGSNSATVLPEEFFEEIKDRGLLANWCQQKEVLEHSSVGVFLTHCGWNSTVETVCAGVPVICWPFFADQQTNCHFACKTLGIGVEISPDVKREEVTGLVKEMMEGEKGEKMREKASYWKKKAAETTDIGGDSYHDFDKLIKSLGFDGRD
modifications: His tag

Columns and labels:
Type in all cases: biochemical, Humulus lupulus
[1] = test system: HlUGT119; assay: Monoterpene glycosylation by recombinant HlUGT119 (UDP-glucose, LC-MS); conditions: 2 mM UDP-glucose, 0.2 mM sugar acceptor substrate, pH 7.5, 30° C., 1 hour
Procedure: (§1) Next, these proteins were used to test their reactivity with monoterpenes by LC-MS analysis. Standard enzyme reaction conditions are as follows. A reaction solution (2 mM UDP-glucose, 0.2 mM sugar acceptor substrate, 100 mM potassium phosphate buffer (pH 7.5), 25 μl purified […] enzyme solution) was prepared in a volume of 50 μl with distilled water and reacted at 30° C. for 1 hour. The enzyme reaction solution (5 μl) was analyzed by LC-MS under the following conditions. LC Conditions Column: CAPCELL PAK C18-UG120 (2.0 mm I.D.×150 mm) Mobile phase: A: water (containing 0.05% formic acid), B: acetonitrile Gradient: linear concentration gradient of B from 15% to 90% over 15 minutes Flow rate: 0.2 ml per minute Column oven: 40° C. MS Conditions ESI (negative mode) SIM mode: (m/z 315, 338, 361, 363, 331, 354, 377, 429, etc.) The above LC-MS analysis was conducted for each of HlUGT119, HlUGT127, HlUGT279 and HlUGT251.

[2] = test system: HlUGT127; assay: Monoterpene glycosylation by recombinant HlUGT127 (UDP-glucose, LC-MS); conditions: 2 mM UDP-glucose, 0.2 mM sugar acceptor substrate, pH 7.5, 30° C., 1 hour
Procedure: as §1

[3] = test system: HlUGT279; assay: Monoterpene glycosylation by recombinant HlUGT279 (UDP-glucose, LC-MS); conditions: 2 mM UDP-glucose, 0.2 mM sugar acceptor substrate, pH 7.5, 30° C., 1 hour
Procedure: as §1

[4] = test system: HlUGT251; assay: Monoterpene glycosylation by recombinant HlUGT251 (UDP-glucose, LC-MS); conditions: for monoglycosylation activity of HlUGT251 on the monoterpene: 2 mM UDP-glucose, 0.2 mM sugar acceptor substrate, pH 7.5, 30° C., 1 hour, LC-MS
Procedure: as §1

Row | Molecule | monoglycosylation activity of HlUGT119 on the monoterpene [1] | monoglycosylation activity of HlUGT127 on the monoterpene [2] | monoglycosylation activity of HlUGT279 on the monoterpene [3] | monoglycosylation activity of HlUGT251 on the monoterpene [4] | amount of product compared with the other three enzymes ([4]; same reaction conditions, ascribed to extremely lower amount of expressed protein)
1 | C=CC(C)(O)CCC=C(C)C (stereo not drawn) [linalool, Linalool] | monoglycosylation activity | monoglycosylation activity | monoglycosylation activity | monoglycosylation activity | –
2 | CC(C)=CCC/C(C)=C/CO [geraniol, Geraniol] | monoglycosylation activity | monoglycosylation activity | monoglycosylation activity | monoglycosylation activity | –
3 | B1 | – | – | – | – | smaller amount of product
